Data from ChEMBL document CHEMBL1201862, “PubChem BioAssay data set” (2004).
Activity calls are given as the source filed them.

Legend:
DNA topoisomerase = DNA topoisomerase (Yersinia pestis, UniProt A0A2S9PM60); assay: Yersinia topoisomerase I cleavage product accumulation – biochemical, cherry-pick, dose response (AID 588525)
[1] = Luminescent dose response cell-based high throughput screening assay for inhibitors of the Janus kinase 2 mutant JAK2V617F. [Related pubchem assays: 1446 (Primary screen.), 1521 (Confirmation assay.), 1486 (Counter screen.)]; assay type: functional
[2] = NIH-3T3 fibroblast cytotoxicity, dose response, cytotoxicity control, cell-based, fluorescence, Alamar Blue, secondary assay (AID 2327); assay type: functional;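 also: NIH-3T3 mouse fibroblasts cultured with fluconazole at 8 µg/mL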
[3] = molecular target: Peroxisome proliferator-activated receptor gamma/Nuclear receptor coactivator 1 (Homo sapiens, UniProt P37231); assay: (§1) TR-FRET dose response biochemical High Throughput Screening assay for agonists of the steroid receptor coactivator 1 (SRC-1) recruitment by the peroxisome proliferator-activated receptor gamma (PPAR gamma): non-selective agonists. [Related pubchem assays (depositor defined):AID1300, AID1808, AID504735, AID631]; assay type: protein assay
[4] = molecular target: Peroxisome proliferator-activated receptor gamma/Nuclear receptor coactivator 3 (Homo sapiens, UniProt P37231); assay: as §1, with “3 (SRC-3)” for “1 (SRC-1)”, “assays: 1301 (Confirmation screen.), 1048 (Primary screen.)]” for “assays (depositor defined):AID1300, AID1808, AID504735, AID631]”; assay type: functional
[5] = fluconazole-exposed Candida albicans growth modulators – fluorescence, retest, confirmation (AID 2467); assay type: functional, cell-based
[6] = viability of PTEN-deleted HCT116 cells – cell-based, HCT116 PTEN knockout, dose response (AID 1047); assay type: functional;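 also: HCT116 colon tumor cells with PTEN knocked out; cells exposed to compound for 60 hours before readout; potency for loss of cell viability measured by luminescence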
[7] = molecular target: T1, Serine/threonine-protein phosphatase (Candida dubliniensis (strain CD36 / CBS 7987 / NCPF 3949 / NRRLY-17841) (Yeast), UniProt B9W6M3); assay: blockers of CaCl2-induced CDRE-lacZ signaling – S. cerevisiae, luminescence, secondary, dose response (AID 2388); assay type: functional, cell-based;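 also: yeast reporter cells carrying a calcineurin-responsive lacZ construct stimulated with calcium chloride; luminescent beta-galactosidase reporter signal in whole cells rather than isolated phosphatase activity; potency for inhibition where a drop in reporter signal means calcineurin blockade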
T1 sequence (B9W6M3 whole entry): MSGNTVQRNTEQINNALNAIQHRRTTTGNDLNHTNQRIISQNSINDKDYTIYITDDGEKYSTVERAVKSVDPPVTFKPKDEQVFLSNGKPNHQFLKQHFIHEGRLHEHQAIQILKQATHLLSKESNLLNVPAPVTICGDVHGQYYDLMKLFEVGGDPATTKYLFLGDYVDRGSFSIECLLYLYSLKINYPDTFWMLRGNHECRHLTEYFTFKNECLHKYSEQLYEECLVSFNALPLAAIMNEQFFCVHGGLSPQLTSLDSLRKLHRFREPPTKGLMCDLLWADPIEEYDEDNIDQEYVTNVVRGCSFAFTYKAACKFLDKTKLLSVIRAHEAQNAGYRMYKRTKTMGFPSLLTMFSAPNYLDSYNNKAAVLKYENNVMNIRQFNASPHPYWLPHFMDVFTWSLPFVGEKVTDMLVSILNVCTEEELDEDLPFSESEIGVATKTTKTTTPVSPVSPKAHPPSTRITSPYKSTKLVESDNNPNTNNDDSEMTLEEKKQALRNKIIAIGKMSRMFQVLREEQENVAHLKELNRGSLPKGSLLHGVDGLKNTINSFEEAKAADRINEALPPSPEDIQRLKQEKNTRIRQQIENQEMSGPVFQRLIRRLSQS

[8] = molecular target: Peroxisome proliferator-activated receptor gamma/Nuclear receptor coactivator 2 (Homo sapiens, UniProt P37231); assay: TR-FRET dose response biochemical High Throughput Screening assay for agonists of the steroid receptor coactivator 2 (SRC-2) recruitment by the peroxisome proliferator-activated receptor gamma (PPAR gamma): non-selective agonists. [Related pubchem assays: 1297, 1032 ]; assay type: functional
[9] = viability of HCT116 lacking mutant beta-catenin – cell-based, human colon tumor, dose response (AID 1045); assay type: functional;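 also: HCT116 colon tumor cells with beta catenin knocked out; cells exposed to compound for 60 hours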
[10] = molecular target: T2, Mannose-6-phosphate isomerase (Homo sapiens, UniProt P34949); assay: MPI inhibition at elevated mannose 6-phosphate – biochemical, fluorescence intensity, high mannose 6-phosphate, primary screen (AID 1220)
T2 sequence (P34949 whole entry): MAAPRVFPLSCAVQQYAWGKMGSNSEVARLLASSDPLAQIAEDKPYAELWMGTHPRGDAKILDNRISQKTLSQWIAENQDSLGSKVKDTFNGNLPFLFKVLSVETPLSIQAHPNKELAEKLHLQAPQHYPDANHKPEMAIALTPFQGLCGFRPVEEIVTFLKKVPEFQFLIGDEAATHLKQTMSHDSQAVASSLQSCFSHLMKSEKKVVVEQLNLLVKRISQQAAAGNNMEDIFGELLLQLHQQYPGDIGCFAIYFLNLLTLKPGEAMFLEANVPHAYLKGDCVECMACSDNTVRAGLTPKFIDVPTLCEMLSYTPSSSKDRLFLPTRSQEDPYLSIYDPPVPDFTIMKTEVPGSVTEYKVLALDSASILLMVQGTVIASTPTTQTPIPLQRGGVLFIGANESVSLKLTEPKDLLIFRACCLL

[11] = molecular target: T3, Replicative DNA helicase DnaB (Mycobacterium tuberculosis, UniProt P9WMR3); assay: DnaB intein splicing inhibitors, dose response, biochemical, cell-free fluorescence (AID 449749); assay type: functional
T3 sequence (P9WMR3 whole entry): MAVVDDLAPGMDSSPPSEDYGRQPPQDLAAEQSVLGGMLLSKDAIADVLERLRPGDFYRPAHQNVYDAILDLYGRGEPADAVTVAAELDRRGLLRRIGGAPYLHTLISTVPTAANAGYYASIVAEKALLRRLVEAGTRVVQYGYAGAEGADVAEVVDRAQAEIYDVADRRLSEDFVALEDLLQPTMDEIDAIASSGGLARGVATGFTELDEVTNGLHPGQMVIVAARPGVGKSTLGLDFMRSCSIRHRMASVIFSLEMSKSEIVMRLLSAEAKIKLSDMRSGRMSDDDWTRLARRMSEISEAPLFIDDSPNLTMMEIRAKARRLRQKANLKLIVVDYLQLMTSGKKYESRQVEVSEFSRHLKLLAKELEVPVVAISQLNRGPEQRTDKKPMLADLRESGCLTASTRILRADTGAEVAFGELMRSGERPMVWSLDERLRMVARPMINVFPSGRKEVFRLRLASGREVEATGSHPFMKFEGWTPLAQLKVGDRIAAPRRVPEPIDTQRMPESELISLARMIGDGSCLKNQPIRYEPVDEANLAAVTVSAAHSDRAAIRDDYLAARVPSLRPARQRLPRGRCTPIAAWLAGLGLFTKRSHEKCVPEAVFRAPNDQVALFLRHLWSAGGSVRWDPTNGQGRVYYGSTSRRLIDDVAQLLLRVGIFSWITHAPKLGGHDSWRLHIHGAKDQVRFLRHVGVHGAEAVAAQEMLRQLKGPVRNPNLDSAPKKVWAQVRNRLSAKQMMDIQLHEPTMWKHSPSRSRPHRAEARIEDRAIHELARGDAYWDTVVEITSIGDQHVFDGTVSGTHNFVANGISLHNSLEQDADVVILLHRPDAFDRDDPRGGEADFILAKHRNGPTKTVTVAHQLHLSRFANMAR

Vero = assay: viability of Vero cells under compound – cytotoxicity control for flavivirus capping enzyme inhibitors (AID 588742); assay type: functional; conditions: Chlorocebus sabaeus
Protein RecA = molecular target: T4, Protein RecA (Mycobacterium tuberculosis, UniProt P9WHJ3); assay: Fluorescence Cell-Free Homogeneous Dose Retest to Identify Inhibitors of RecA-Intein Splicing Activity. [Related pubchem assays (depositor defined):AID2097, AID2223, AID489010, AID492950]; assay type: functional
T4 sequence (P9WHJ3 whole entry): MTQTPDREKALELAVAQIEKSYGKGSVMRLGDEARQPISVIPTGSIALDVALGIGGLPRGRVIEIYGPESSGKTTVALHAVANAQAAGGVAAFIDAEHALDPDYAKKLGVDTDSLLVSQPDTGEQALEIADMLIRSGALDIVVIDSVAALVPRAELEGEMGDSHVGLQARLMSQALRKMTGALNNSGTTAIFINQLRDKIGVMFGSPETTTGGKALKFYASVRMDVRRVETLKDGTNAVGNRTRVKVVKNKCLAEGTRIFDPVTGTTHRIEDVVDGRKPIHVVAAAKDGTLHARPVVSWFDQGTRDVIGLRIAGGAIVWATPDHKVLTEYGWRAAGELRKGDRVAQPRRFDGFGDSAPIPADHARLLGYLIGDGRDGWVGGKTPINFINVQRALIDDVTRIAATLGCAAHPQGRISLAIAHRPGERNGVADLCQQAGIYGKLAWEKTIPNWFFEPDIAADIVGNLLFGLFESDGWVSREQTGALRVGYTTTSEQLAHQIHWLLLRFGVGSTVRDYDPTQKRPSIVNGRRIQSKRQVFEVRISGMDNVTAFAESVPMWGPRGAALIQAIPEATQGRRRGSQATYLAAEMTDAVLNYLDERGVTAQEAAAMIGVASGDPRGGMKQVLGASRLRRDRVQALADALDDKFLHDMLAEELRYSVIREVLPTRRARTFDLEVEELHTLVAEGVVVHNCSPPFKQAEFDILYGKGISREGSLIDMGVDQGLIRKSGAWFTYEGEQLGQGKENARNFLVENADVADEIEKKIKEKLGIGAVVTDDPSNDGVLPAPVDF

INS1 = assay: INS-1E survival protection against cytokine death – cell-based, luminescence, retest, dose response (AID 449756); assay type: functional; conditions: Rattus norvegicus;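 also: cell death triggered by IL-1 beta plus TNF-alpha plus IFN-gamma mixture; protective hits raise ATP signal compared with cytokine alone wells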
[12] = molecular target: ATP-dependent molecular chaperone HSP82 (Candida albicans (strain WO-1) (Yeast), UniProt C4YTQ8); assay: steroid-induced GRE reporter decrease in yeast – S. cerevisiae, luminescence, Hsp90 inhibitor project, dose response (AID 2400); assay type: functional, cell-based;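 also: beta-galactosidase luminescence from glucocorticoid response element reporter as proxy for Hsp90 function; inhibitor potency where signal loss means Hsp90 inhibition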
Chain of ATP-dependent molecular chaperone HSP82 (C4YTQ8 whole entry): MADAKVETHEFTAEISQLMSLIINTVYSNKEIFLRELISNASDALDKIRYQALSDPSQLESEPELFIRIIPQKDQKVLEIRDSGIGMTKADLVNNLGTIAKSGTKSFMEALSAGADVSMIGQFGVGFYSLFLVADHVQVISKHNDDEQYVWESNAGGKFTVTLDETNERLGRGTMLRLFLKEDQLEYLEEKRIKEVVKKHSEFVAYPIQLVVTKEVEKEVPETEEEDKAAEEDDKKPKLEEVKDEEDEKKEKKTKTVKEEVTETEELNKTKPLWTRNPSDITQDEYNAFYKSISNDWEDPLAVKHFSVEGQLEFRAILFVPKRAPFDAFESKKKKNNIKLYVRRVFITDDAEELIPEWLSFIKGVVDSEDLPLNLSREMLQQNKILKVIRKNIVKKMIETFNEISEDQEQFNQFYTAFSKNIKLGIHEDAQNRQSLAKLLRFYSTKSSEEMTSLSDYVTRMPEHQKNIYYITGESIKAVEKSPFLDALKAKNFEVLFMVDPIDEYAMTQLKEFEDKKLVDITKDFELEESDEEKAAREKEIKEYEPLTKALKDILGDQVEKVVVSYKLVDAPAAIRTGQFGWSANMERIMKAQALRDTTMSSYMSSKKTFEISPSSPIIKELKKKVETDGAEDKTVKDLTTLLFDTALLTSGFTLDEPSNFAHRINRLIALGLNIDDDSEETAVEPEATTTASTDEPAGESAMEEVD

Chain of DNA topoisomerase (A0A2S9PM60 whole entry): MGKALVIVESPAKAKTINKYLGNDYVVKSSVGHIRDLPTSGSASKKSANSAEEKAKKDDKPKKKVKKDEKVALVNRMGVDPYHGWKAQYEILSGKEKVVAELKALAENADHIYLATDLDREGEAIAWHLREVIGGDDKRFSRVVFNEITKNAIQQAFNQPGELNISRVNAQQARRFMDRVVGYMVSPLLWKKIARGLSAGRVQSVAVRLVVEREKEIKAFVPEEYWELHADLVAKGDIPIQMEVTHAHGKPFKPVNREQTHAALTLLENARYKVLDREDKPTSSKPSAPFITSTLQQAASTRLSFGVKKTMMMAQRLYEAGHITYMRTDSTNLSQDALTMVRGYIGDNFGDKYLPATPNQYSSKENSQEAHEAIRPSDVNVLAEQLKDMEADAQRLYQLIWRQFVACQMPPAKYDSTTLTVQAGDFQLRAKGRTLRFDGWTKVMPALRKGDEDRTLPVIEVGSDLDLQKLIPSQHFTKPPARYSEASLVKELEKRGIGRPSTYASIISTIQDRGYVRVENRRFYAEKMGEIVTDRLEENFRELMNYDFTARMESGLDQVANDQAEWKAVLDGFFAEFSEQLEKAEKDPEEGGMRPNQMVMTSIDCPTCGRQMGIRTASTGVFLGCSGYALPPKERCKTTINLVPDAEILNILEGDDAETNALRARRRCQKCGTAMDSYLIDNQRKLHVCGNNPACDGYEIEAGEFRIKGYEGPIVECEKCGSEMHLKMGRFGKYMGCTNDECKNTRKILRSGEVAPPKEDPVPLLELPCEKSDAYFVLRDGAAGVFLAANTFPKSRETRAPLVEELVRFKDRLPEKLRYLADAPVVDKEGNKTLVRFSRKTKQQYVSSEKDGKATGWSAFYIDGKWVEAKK
Chain of Peroxisome proliferator-activated receptor gamma/Nuclear receptor coactivator 2 (P37231 whole entry): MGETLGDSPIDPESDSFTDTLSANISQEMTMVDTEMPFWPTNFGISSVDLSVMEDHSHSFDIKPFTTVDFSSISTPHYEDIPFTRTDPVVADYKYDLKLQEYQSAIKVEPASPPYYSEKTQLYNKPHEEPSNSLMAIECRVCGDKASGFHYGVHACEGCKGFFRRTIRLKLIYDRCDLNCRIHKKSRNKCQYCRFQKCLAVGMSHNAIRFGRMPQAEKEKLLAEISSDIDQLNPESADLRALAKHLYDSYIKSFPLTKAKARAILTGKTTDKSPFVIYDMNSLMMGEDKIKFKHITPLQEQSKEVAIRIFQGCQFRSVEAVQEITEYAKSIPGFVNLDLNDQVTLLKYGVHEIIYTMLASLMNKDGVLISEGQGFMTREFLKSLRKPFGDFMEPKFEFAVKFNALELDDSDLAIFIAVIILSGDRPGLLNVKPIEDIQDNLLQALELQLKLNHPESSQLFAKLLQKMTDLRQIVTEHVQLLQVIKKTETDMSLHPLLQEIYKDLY
Chain of Peroxisome proliferator-activated receptor gamma/Nuclear receptor coactivator 2 (Q15596 whole entry, further chain): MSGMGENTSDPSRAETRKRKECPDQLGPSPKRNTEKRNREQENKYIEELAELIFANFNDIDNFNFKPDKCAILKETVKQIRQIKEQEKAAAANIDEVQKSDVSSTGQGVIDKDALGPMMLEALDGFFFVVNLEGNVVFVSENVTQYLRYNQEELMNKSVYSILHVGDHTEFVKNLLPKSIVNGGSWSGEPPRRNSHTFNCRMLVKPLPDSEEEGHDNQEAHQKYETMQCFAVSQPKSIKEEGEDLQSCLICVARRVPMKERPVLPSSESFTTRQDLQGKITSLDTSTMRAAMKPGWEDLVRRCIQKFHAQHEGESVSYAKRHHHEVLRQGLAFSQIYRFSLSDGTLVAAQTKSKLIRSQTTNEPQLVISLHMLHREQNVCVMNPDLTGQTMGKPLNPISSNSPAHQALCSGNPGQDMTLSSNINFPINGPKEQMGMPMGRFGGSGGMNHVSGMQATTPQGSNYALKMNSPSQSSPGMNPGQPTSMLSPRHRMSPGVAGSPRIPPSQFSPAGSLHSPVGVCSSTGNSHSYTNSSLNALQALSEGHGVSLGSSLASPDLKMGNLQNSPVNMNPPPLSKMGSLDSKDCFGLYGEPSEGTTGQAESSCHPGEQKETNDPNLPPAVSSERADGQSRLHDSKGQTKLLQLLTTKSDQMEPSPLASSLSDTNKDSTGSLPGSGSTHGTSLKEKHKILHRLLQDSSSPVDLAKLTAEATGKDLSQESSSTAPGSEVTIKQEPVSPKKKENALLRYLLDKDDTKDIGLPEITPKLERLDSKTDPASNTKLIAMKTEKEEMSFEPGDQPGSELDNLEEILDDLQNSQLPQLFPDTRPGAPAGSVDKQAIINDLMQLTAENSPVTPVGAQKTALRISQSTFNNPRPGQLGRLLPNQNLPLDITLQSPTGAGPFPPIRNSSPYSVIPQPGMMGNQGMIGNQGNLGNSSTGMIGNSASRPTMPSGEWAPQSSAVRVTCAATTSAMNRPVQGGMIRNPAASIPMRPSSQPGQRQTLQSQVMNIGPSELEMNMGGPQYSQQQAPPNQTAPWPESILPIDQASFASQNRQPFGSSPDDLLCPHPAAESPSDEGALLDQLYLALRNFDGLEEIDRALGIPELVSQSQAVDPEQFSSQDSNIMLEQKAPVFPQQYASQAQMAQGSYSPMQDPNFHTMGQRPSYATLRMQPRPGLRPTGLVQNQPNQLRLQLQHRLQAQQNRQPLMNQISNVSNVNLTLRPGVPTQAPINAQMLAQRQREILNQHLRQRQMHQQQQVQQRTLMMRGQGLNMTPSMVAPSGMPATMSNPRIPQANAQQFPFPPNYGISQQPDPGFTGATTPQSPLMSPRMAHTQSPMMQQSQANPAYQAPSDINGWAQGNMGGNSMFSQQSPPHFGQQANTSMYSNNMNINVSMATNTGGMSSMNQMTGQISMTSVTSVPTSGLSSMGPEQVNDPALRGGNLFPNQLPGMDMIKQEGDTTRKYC

Structure (SMILES) | AC50 (DNA topoisomerase) | IC50 [1] | EC50 [2] | EC50 [3] | EC50 [4] | EC50 [5] | EC50 [6] | EC50 [7] | EC50 [8] | EC50 [9] | IC50 [10] | AC50 [11] | CC50 (Vero) | EC50 (Protein RecA) | AC50 (INS1) | EC50 [12]
Cc1cc(OCCn2nc(C(=O)O)c3ccccc3c2=O)ccc1C(C)C | 3.68 µM (active) | – | – | – | – | – | – | – | – | – | – | – | – | – | – | –
[O-][N+]1=c2ccc(Nc3ccccc3)cc2=NC12CCCCC2 | – | 0.637 µM (active) | 146 µM (active) | 14.9 µM (inactive) | > 79.4 µM (not active) | 1.46 µM (active) | 1.9 µM (active) | > 180 µM (inactive) | 14.4 µM (not active) | 1.62 µM (active) | 48.2 µM (active) | > 380 µM (inactive) | 18.6 µM (active) | 4.37 µM (active) | 5.64 µM (active) | > 150 µM (inactive)
